We go through 3 molecules from ChEMBL document CHEMBL5584242, “Discovery of pyridazinone derivatives bearing tetrahydroimidazo[1,2-a]pyrazine scaffold as potent inhibitors of transient receptor potential canonical 5 to ameliorate hypertension-induced renal injury in rats” (Eur J Med Chem, 2024).

The conditions of data set [1]: human, microsomes.
For data set [2] the following is noted: rat, microsomes.
The conditions of data set [3]: mouse, microsomes.
The nature of data set [4]: in vitro. The note with it: human, liver microsomes. (In general: Microsomes from liver hold many membrane-bound enzymes, among them those of drug oxidation.)
Data set [5] in a line: in vitro. The note with it: rat, liver microsomes.
The nature of data set [6]: in vitro. The note with it: mouse, liver microsomes.
The nature of data set [7]: in vitro. The note with it: human, liver microsomes, F.
Data set [8] in a line: in vitro. The note with it: rat, liver microsomes, F.
Data set [9] is described as follows: in vitro. The note with it: mouse, liver microsomes, F.
Data set [10] in a line: Tmax in ICR mouse at 10 mg/kg, po measured upto 24 hrs by LC-MS/MS analysis. The format is ADME, organism-based. The note with it: in vivo.
Data set [11] can be described thus: Cmax in ICR mouse at 10 mg/kg, po measured upto 24 hrs by LC-MS/MS analysis. Format: ADME, organism-based. The note with it: in vivo.
Data set [12] can be described thus: Half-life in ICR mouse at 10 mg/kg, po measured upto 24 hrs by LC-MS/MS analysis. Format: ADME, organism-based. The note with it: in vivo.
Data set [13] in a line: Drug distribution in ICR mouse colon at 10 mg/kg, po measured after 1 hr by LC-MS/MS analysis. Format: ADME, organism-based. The note with it: in vivo.
Data set [14] can be described thus: Drug distribution in ICR mouse kidney at 10 mg/kg, po measured after 1 hr by LC-MS/MS analysis. Format: ADME, organism-based. The note with it: in vivo.
Data set [15] is described as follows: Drug distribution in ICR mouse liver at 10 mg/kg, po measured after 1 hr by LC-MS/MS analysis. The format is ADME, organism-based. The note with it: in vivo.
A short description of data set [16]: Drug distribution in ICR mouse spleen at 10 mg/kg, po measured after 1 hr by LC-MS/MS analysis. Format: ADME, organism-based. The note with it: in vivo.
A short description of data set [17]: Drug distribution in ICR mouse heart at 10 mg/kg, po measured after 1 hr by LC-MS/MS analysis. The format is ADME, organism-based. The note with it: in vivo.
Data set [18] in a line: Drug distribution in ICR mouse lung at 10 mg/kg, po measured after 1 hr by LC-MS/MS analysis. Format: ADME, organism-based. The note with it: in vivo.
A short description of data set [19]: Drug distribution in ICR mouse brain at 10 mg/kg, po measured after 1 hr by LC-MS/MS analysis. Format: ADME, organism-based. The note with it: in vivo.
The conditions of data set [20]: human, microsomes. This is another data set of the same source.
For data set [21] the following is noted: rat, microsomes. The source holds these as a separate data set.
The conditions of data set [22]: mouse, microsomes. The source holds these as a separate data set.

Structures are written as SMILES.

As for `COC(c1ccc(F)cc1C(F)(F)F)c1cnc2n1CCN(c1cn[nH]c(=O)c1Cl)C2` (centres undefined), the CLH worked out at 50.6 mL/min/g in [1], 60.5 mL/min/g in data set [2] and 54.2 mL/min/g in [3]. Moreover, the results for the half-life in “in vitro [4]”, in the data set “in vitro [5]” and in the data set “in vitro [6]” were 41.5 min, 34.7 min and 38.7 min, respectively. For the same molecule, the Fh stood at 27.9% in “in vitro [7]”, 42.3% in the data set “in vitro [8]” and 45% in the data set “in vitro [9]”.
Turning to `COC(c1ccc(F)cc1Cl)c1cnc2n1CCN(c1cn[nH]c(=O)c1Cl)C2` (stereo in doubt; 12), in data set [10], the Tmax was 60 min. The same molecule showed a Cmax in data set [11] of 1150 ng/mL. Moreover, the half-life is 118 min in [12], 119 min in the data set “in vitro [4]” (t1/2), 21.6 min in “in vitro [5]” (t1/2) and 46.7 min in the data set “in vitro [6]” (t1/2). Moreover, the Drug uptake entry in data set [13], in [14], in data set [15], in data set [16], in data set [17] and in data set [18] was “Active” in each case. The Drug uptake entry in data set [19] is “Not Active”. For the same molecule, the values for the CLH in [1], in data set [2] and in data set [3] were 17.7 mL/min/g, 97.3 mL/min/g and 45 mL/min/g, respectively. For the same molecule, the Fh in “in vitro [7]” came out at 52.5%; in “in vitro [8]”, 31.4%; in the data set “in vitro [9]”, 49.7%.
`COC(c1ccc(F)cc1Cl)c1cnc2n1CCN(c1cn[nH]c(=O)c1Cl)C2` (stereo in doubt; 12-2): the figures for the t1/2 in [20], in [21] and in data set [22] were 120 min, 14.8 min and 50.3 min, respectively. Besides, the CLH in [1] was 17.5 mL/min/g; in data set [2], 142 mL/min/g; in data set [3], 41.8 mL/min/g.

The term half-life denotes the time in which the quantity being followed falls by half. Low values mean rapid decline, high ones slow decline. The term Tmax denotes the time from dosing to the highest level. One may read the Cmax as the maximum level reached in the sampled fluid or tissue.
